“And” between values parts separate entries of the source, which are not always exact repeats. Identical values can stand only once. “Also recorded” adds a separate entry of the source.
Legend:
[1] = test system: tumour astrocyte lines; conditions: lines from primary cultures of astrocytes of newborn rat brain; cited from earlier work
[2] = stability of Oxysterol solution to autoclave sterilisation; type: physicochemical
Description: A solution of 5 mg Oxysterol in 5 ml of a mixture Acetonitrile / isopropanol (44/56 v/v) is prepared then sterilized in the autoclave for 20 min at 121°C. The solution is analysed according to a […] method of oxysterol before and after autoclaving. The solution of oxysterol is subjected to a second autoclaving for 30minutes at 121°C. The areas of the peaks of oxysterol are determined and the yield after autoclaving is calculated in the following manner Yield: Area of oxysterol after autoclaving; Area of oxysterol before autoclaving x 100 [formula]

[3] = test system: glioma C6 Cells; experiment: single stereotactic cerebral intra-ventricular injection in rats implanted with glioma C6 cells; type: in vivo
[4] = stability of active principle in the finished product to autoclaving; type: physicochemical; conditions: for Content in oxysterol: samples PE1-PE3, listed as oxysterol
Description: A batch has been subjected to a dosage before and after autoclaving 20 minutes at 121 °C, to determine whether oxysterol also resists to autoclaving. Three samples have been analysed :
The autoclaving yield is calculated in the following manner Yield autoclaving: Content oxysterol after autoclaving; Content oxysterol before autoclaving x 100 [formula]

[5] = test system: rat brain C6 glioblastoma cells; experiment: intratumoral injection of liposomes in rats with intracerebral implantation of C6 glial cells (earlier studies); type: in vivo; conditions: compared with animals treated with liposomes only
Source text: The effect of 7-β-hydroxy cholesteryl-3-β-oleate-ester on rat brain C6 glioblastoma cells was studied (Werthle M & All).
The ester of 7-β-hydroxy-cholesterol, the 7-β-hydroxy cholesteryl-3-β-oleate-ester (7-β-OHCOE) belongs to the oxysterols.

[6] = test system: Advanced glioblastoma, Grade III o IV astrocytoma, Anaplastic oligodendroglioma; experiment: compassionate clinical trial, stereotactic administration of liposomal form; type: in vivo, patients; conditions: 1 to 3 doses, total 0.05 to 3.2mg/patient
[7] = test system: rat brain C6 glioblastoma cells; conditions: injection of liposomes containing the ester vs liposomes without oxysterol (Werthle M & All); cited from earlier work
[8] = design: species or system rats and mice; conditions: in vivo
[9] = 2 autoclavings, second for 30 minutes at 121°C
[10] = after autoclaving 20 minutes at 121 °C

In the case of `CC(C)CCC[C@@H](C)[C@H]1CC[C@H]2[C@@H]3[C@@H](O)C=C4C[C@@H](O)CC[C@]4(C)[C@H]3CC[C@]12C` [7-β-OH-CH, 7 beta-hydroxy-cholesterol], the “lethal effect / cytotoxicity” value [1] is given as “lethal effect”.
With `CCCCCCCC/C=C\CCCCCCCC(=O)O[C@H]1CC[C@@]2(C)C(=C[C@H](O)[C@H]3[C@@H]4CC[C@H]([C@H](C)CCCC(C)C)[C@@]4(C)CC[C@@H]32)C1` [7-β-OHCOE, 7-β-hydroxy cholesteryl-3-β-oleate-ester] the “Area oxysterol after autoclaving” value ([2]; 1 autoclaving, 20 min at 121°C) was 5517,4, the Yield of autoclaving ([2]; 1 autoclaving, 20 min at 121°C) was 100,2% and the “Area oxysterol before autoclaving” value ([2]; 1 autoclaving, 5 mg in 5 ml Acetonitrile / isopropanol (44/56 v/v)) was 5506,5. The “Area oxysterol before autoclaving” value ([2]; 2 autoclavings) was 5666,1, the “Area oxysterol after autoclaving” value [2, 9] was 5716,3 and the Yield of autoclaving [2, 9] was 100,9%. The survival ([3]; injection of liposomal form in experimental animals) was “did affect neither survival nor body weight”, the “total tumoral volume, mean value” ([3]; liposomal, injected 3 days after implantation, sacrificed 10 days after treatment, reduced from 4.4mm3) was 0.8 mm3 and the body weight ([3]; rat, in vivo) was “did affect neither survival nor body weight”. The “Content in oxysterol, Average” value [4, 10] was 1,43 mg/g, the Content in oxysterol [4, 10] was 1,42 mg/g and 1,41 mg/g and 1,45 mg/g and the “average yield of autoclaving” value ([4]; autoclaving 20 minutes at 121 °C) was 97,9%. For the same molecule, the “Content in oxysterol, Average” value ([4]; before autoclaving) was 1,46 mg/g, the Content in oxysterol ([4]; before autoclaving) was 1,45 mg/g and 1,46 mg/g and the tumor growth [5] was “significant regression of tumor growth; also recorded: spectacular regression of tumour growth”. The “partial or total remission observed” value ([6]; 11 patients included) was 3 patients, the side effects ([6]; 11 patients) was “No significant side effects were observed” and the tumor volume [7] was “marked decrease in tumor volume”. The metabolism [8] was “metabolized to cholesterol within the cerebral parenchyma” and the noxious effects [8] was “no noxious effects”.
